# Assay results reported in patent US6503936B1 (priority 1998, dated 2003).
# Where two headings read alike, the source gives them in different places.
# Columns and labels:
# [1] = test system: Phytophthora infestans; assay type: in vivo; settings: tomato leaves, 6 days after infection
# [2] = test system: Phytophthora infestans; assay type: in vivo; settings: tomato leaves, 6 days after infection; remark: listed apart in the source
smiles,measurement,setting,value
"O=S(=O)([O-])[O-].[Cu+2].[Cu+2].[Cu+2].[Cu+2].[OH-].[OH-].[OH-].[OH-].[OH-].[OH-] [II.1, tribasic copper sulfate 3Cu(OH)2xCuSO4]",Efficiency in % of the untreated control,[1]; Conc. 12.5 ppm,0%
same,Efficiency in % of the untreated control,[1]; Conc. 25 ppm,8%
same,Efficiency in % of the untreated control,[1]; Conc. 50 ppm,8%
same,Efficiency in % of the untreated control,[1]; Conc. 100 ppm,8%
same,Efficiency in % of the untreated control,[1]; Conc. 200 ppm,8%
same,Efficiency in % of the untreated control,[2]; 12.5 ppm active compound in the spray liquor,0%
same,Efficiency in % of the untreated control,[2]; 25 ppm active compound in the spray liquor,0%
same,Efficiency in % of the untreated control,[2]; 50 ppm active compound in the spray liquor,0%
same,Efficiency in % of the untreated control,[2]; 100 ppm active compound in the spray liquor,10%
